O=C(O)CSc1ccc2ccccc2c1
solubility (mole fraction)
Settings	278.15 K	283.15 K	288.15 K	293.15 K	298.15 K	303.15 K	308.15 K	313.15 K	318.15 K	323.15 K
in DMF	0.00524	0.00586	0.0066	0.00738	0.00828	0.00917	0.0101	0.0112	0.0122	0.0135
in ethanol	0.0014	0.0018	0.00234	0.00282	0.00336	0.00394	0.00456	0.0052	0.00584	0.00669
in isopropanol	0.000227	0.0003	0.000383	0.000481	0.00058	0.000682	0.000801	0.000919	0.00105	0.0012
in methanol	0.00053	0.000675	0.000828	0.00102	0.00119	0.0014	0.0016	0.0018	0.00204	0.00235
in water	1.42e-06	1.95e-06	2.54e-06	3.16e-06	3.88e-06	4.53e-06	5.33e-06	6.1e-06	7e-06	8.05e-06

Source: BigSolDB 2.1
